Test results as given in patent US20250221988A1 (Cullgen (Shanghai), Inc., priority 2022, published 2025).
Where two headings read alike, the source gives them in different places.

Experiments:
[1] = test system: MOLM-13 cells; experiment: Cell viability assay (CellTiter-Glo) in MOLM-13 cells; format: cell-based
[2] = test system: MV4;11 cells; experiment: Cell viability assay (CellTiter-Glo) in MV4;11 cells; format: cell-based; conditions: read-out: MV4
How it was run: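 After three days' exposure to 3-fold serial compound dilutions (8 or 12 points), viability of cells seeded at 5000/well is read by CellTiter-Glo. Runs were done alone or combined with gilteritinib at 10 nM (MV4;11) or 20 nM (MOLM-13); IC50 from nonlinear regression.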

[3] = Homo sapiens, MOLM-13, 72 h, read-out: MOLM-13 IC50 (nM)
[4] = read-out: MOLM-13 IC50 (nM) + 10 nM Gil, MOLM-13 cells, with gilteritinib, three days
[5] = Homo sapiens, MV4-11, 72 h, 11 IC50 (nM)
[6] = 11 IC50 (nM) + 10 nM Gil, MV4;11 cells, with 10 nM gilteritinib, three days
[7] = Homo sapiens, 72 h, MOLM-13 cells, compound alone, three days, read-out: MOLM-13 IC50
[8] = MOLM-13 cells, with gilteritinib, three days, read-out: MOLM-13 IC50 (nM) + 10 nM Gil
[9] = Homo sapiens, MV4-11, 72 h, MV4;11 cells, compound alone, three days, 11 IC50
[10] = MV4;11 cells, with 10 nM gilteritinib, three days, 11 IC50 (nM) + 10 nM Gil

SMILES	IC50 [1, 3]	IC50 [1, 4]	IC50 [2, 5]	IC50 [2, 6]	IC50 [1, 7]	IC50 [1, 8]	IC50 [2, 9]	IC50 [2, 10]	sensitization of AML cells to GSPT1 degraders by FLT3 inhibition ([1]; MOLM-13 cells, with or without 20 nM gilteritinib, 3 days)
CC(C)n1ncc2ccnc(-c3cn([C@H]4C[C@H](CNc5ccc6c(c5)C(=O)N(C5CCC(=O)NC5=O)C6=O)C4)nc3C3CC3)c21 (stereo partly drawn) [GS-661, 5-(((Trans-3-(3-cyclopropyl-4-(1-isopropyl-1H-pyrazolo[3,4-c]pyridin-7-yl)-1H-pyrazol-1-yl)cyclobutyl)methyl)amino)-2-(2,6-dioxopiperidin-3-yl)isoindoline-1,3-dion]	10 to 100 nM	< 10 nM	10 to 100 nM	< 10 nM					
N[C@H]1C[C@H](n2cc3cnc(-c4cn([C@H]5C[C@H](CNc6ccc7c(c6)C(=O)N(C6CCC(=O)NC6=O)C7=O)C5)nc4C4CC4)cc3n2)C1 (stereo partly drawn) [GS-786, 5-(((Trans-3-(4-(2-(trans-3-aminocyclobutyl)-2H-pyrazolo[4,3-c]pyridin-6-yl)-3-cyclopropyl-1H-pyrazol-1-yl)cyclobutyl)methyl)amino)-2-(2,6-dioxopiperidin-3-yl)isoindoline-1,3-dione]					10 to 100 nM	< 10 nM	< 10 nM	< 10 nM	
Cc1c2ccccc2nn1[C@H]1C[C@H](CNc2ccc3c(c2)C(=O)N(C2CCC(=O)NC2=O)C3=O)C1 (stereo partly drawn) [GS-688, 2-(2,6-Dioxopiperidin-3-yl)-5-(((trans-3-(3-methyl-2H-indazol-2-yl)cyclobutyl)methyl)amino)isoindoline-1,3-dione]					> 1000 nM	100 to 1000 nM	> 1000 nM		
O=C1CCC(N2C(=O)c3ccc(NC[C@H]4C[C@H](n5cc(-c6cc7nn(C8CC(O)C8)cc7cn6)c(C6CC6)n5)C4)cc3C2=O)C(=O)N1 (stereo partly drawn) [GS-750, 5-(((Trans-3-(3-cyclopropyl-4-(2-(3-hydroxycyclobutyl)-2H-pyrazolo[4,3-c]pyridin-6-yl)-1H-pyrazol-1-yl)cyclobutyl)methyl)amino)-2-(2,6-dioxopiperidin-3-yl)isoindoline-1,3-dione]					< 10 nM	< 10 nM	< 10 nM	< 10 nM	FLT3 inhibition sensitizes AML cells
O=C1CCC(N2Cc3ccc(NC[C@H]4C[C@H](n5cc(-c6cnc7ccccc7n6)c(C6CC6)n5)C4)cc3C2=O)C(=O)N1 (stereo partly drawn) [GS-662, 3-(6-(((Trans-3-(3-cyclopropyl-4-(quinoxalin-2-yl)-1H-pyrazol-1-yl)cyclobutyl)methyl)amino)-1-oxoisoindolin-2-yl)piperidine-2,6-dione]					> 1000 nM		> 1000 nM		
O=C1CCC(N2C(=O)c3ccc(NC[C@H]4C[C@H](n5cc(-n6ncc7ccccc76)c(C6CC6)n5)C4)cc3C2=O)C(=O)N1 (stereo partly drawn) [GS-736, 5-(((Trans-3-(3-cyclopropyl-4-(1H-indazol-1-yl)-1H-pyrazol-1-yl)cyclobutyl)methyl)amino)-2-(2,6-dioxopiperidin-3-yl)isoindoline-1,3-dione]	10 to 100 nM	< 10 nM	< 10 nM	< 10 nM					
O=C1CCC(N2C(=O)c3ccc(OC[C@H]4C[C@H](n5cc(-c6cnc7ccccc7n6)c(C6CC6)n5)C4)cc3C2=O)C(=O)N1 (stereo partly drawn) [GS-640, 5-((Trans-3-(3-cyclopropyl-4-(quinoxalin-2-yl)-1H-pyrazol-1-yl)cyclobutyl)methoxy)-2-(2,6-dioxopiperidin-3-yl)isoindoline-1,3-dione]					> 1000 nM	100 to 1000 nM	> 1000 nM	100 to 1000 nM	
Cc1nc(-c2cn([C@H]3C[C@@H]3CNc3ccc4c(c3)C(=O)N(C3CCC(=O)NC3=O)C4=O)nc2C2CC2)ccc1F (relative stereo) [GS-643, 5-(((Trans-2-(3-cyclopropyl-4-(5-fluoro-6-methylpyridin-2-yl)-1H-pyrazol-1-yl)cyclopropyl)methyl)amino)-2-(2,6-dioxopiperidin-3-yl)isoindoline-1,3-dione]					> 1000 nM		> 1000 nM		
Cn1cnc2cnc(-c3cn([C@H]4C[C@H](CNc5ccc6c(c5)C(=O)N(C5CCC(=O)NC5=O)C6=O)C4)nc3C3CC3)cc21 (stereo partly drawn) [GS-658, 5-(((Trans-3-(3-cyclopropyl-4-(1-methyl-1H-imidazo[4,5-c]pyridin-6-yl)-1H-pyrazol-1-yl)cyclobutyl)methyl)amino)-2-(2,6-dioxopiperidin-3-yl)isoindoline-1,3-dione]					> 1000 nM	100 to 1000 nM	> 1000 nM	100 to 1000 nM	
O=C1CCC(N2C(=O)c3ccc(NC[C@H]4C[C@H](n5cc(-c6cc7c(cn6)cnn7C6CC(O)C6)c(C6CC6)n5)C4)cc3C2=O)C(=O)N1 (stereo partly drawn) [GS-763, 5-(((Trans-3-(3-cyclopropyl-4-(1-(3-hydroxycyclobutyl)-1H-pyrazolo[4,3-c]pyridin-6-yl)-1H-pyrazol-1-yl)cyclobutyl)methyl)amino)-2-(2,6-dioxopiperidin-3-yl)isoindoline-1,3-dione]					10 to 100 nM	< 10 nM	10 to 100 nM	< 10 nM	
CN1CC(c2ccc3nc(-c4cn([C@H]5C[C@H](CNc6ccc7c(c6)C(=O)N(C6CCC(=O)NC6=O)C7=O)C5)nc4C4CC4)cnc3c2)C1 (stereo partly drawn) [GS-755, 5-(((Trans-3-(3-cyclopropyl-4-(6-(1-methylazetidin-3-yl)quinoxalin-2-yl)-1H-pyrazol-1-yl)cyclobutyl)methyl)amino)-2-(2,6-dioxopiperidin-3-yl)isoindoline-1,3-dione]					10 to 100 nM	< 10 nM	10 to 100 nM	< 10 nM	
COc1ccc2c(C3CC3)nn([C@H]3C[C@H](CNc4ccc5c(c4)C(=O)N(C4CCC(=O)NC4=O)C5=O)C3)c2n1 (stereo partly drawn) [GS-674, 5-(((Trans-3-(3-cyclopropyl-6-methoxy-1H-pyrazolo[3,4-b]pyridin-1-yl)cyclobutyl)methyl)amino)-2-(2,6-dioxopiperidin-3-yl)isoindoline-1,3-dione]					> 1000 nM		> 1000 nM		
Cc1cccc2cnn([C@H]3C[C@H](CNc4ccc5c(c4)C(=O)N(C4CCC(=O)NC4=O)C5=O)C3)c12 (stereo partly drawn) [GS-693, 2-(2,6-Dioxopiperidin-3-yl)-5-(((trans-3-(7-methyl-1H-indazol-1-yl)cyclobutyl)methyl)amino)isoindoline-1,3-dione]					> 1000 nM	100 to 1000 nM	> 1000 nM	100 to 1000 nM	
O=C1CCC(N2C(=O)c3ccc(NC[C@H]4C[C@H](n5cc(-n6ccc7ccccc76)c(C6CC6)n5)C4)cc3C2=O)C(=O)N1 (stereo partly drawn) [GS-738, 5-(((Trans-3-(3-cyclopropyl-4-(1H-indol-1-yl)-1H-pyrazol-1-yl)cyclobutyl)methyl)amino)-2-(2,6-dioxopiperidin-3-yl)isoindoline-1,3-dione]	100 to 1000 nM	10 to 100 nM	10 to 100 nM	10 to 100 nM					
O=C1CCC(N2C(=O)c3ccc(NC[C@H]4C[C@H](n5nc(C6CC6)cc5Cc5ccccc5)C4)cc3C2=O)C(=O)N1 (stereo partly drawn) [GS-741, 5-((Trans-3-(5-benzyl-3-cyclopropyl-1H-pyrazol-1-yl)cyclobutyl)methylamino)-2-(2,6-dioxopiperidin-3-yl)isoindoline-1,3-dione]					10 to 100 nM	10 to 100 nM	10 to 100 nM	< 10 nM	
O=C1CCC(N2C(=O)c3ccc(NCCC4CC5(C4)CC(n4nc(C6CC6)c6ccccc64)C5)cc3C2=O)C(=O)N1 (stereo not shown) [GS-783, 5-((2-(6-(3-Cyclopropyl-1H-indazol-1-yl)spiro[3.3]heptan-2-yl)ethyl)amino)-2-(2,6-dioxopiperidin-3-yl)isoindoline-1,3-dione]					10 to 100 nM	10 to 100 nM	10 to 100 nM	10 to 100 nM	
O=C1CCC(N2C(=O)c3ccc(NC[C@H]4C[C@H](n5nc(C6CC6)c6ccc(N7CCNCC7)cc65)C4)cc3C2=O)C(=O)N1 (stereo partly drawn) [GS-742, 5-(((Trans-3-(3-cyclopropyl-6-(piperazin-1-yl)-1H-indazol-1-yl)cyclobutyl)methyl)amino)-2-(2,6-dioxopiperidin-3-yl)isoindoline-1,3-dione]					> 1000 nM	100 to 1000 nM	> 1000 nM	100 to 1000 nM	
O=C1CCC(N2C(=O)c3ccc(NCCC4CC5(C4)CC(n4cc(-c6cnc7ccccc7n6)c(C6CC6)n4)C5)cc3C2=O)C(=O)N1 (stereo not shown) [GS-724, 5-((2-(6-(3-Cyclopropyl-4-(quinoxalin-2-yl)-1H-pyrazol-1-yl)spiro[3.3]heptan-2-yl)ethyl)amino)-2-(2,6-dioxopiperidin-3-yl)isoindoline-1,3-dione]					10 to 100 nM	< 10 nM	< 10 nM	< 10 nM	
O=C1CCC(N2C(=O)c3ccc(NC[C@H]4C[C@H](n5cc6ccccc6n5)C4)cc3C2=O)C(=O)N1 (stereo partly drawn) [GS-727, 5-(((Trans-3-(2H-indazol-2-yl)cyclobutyl)methyl)amino)-2-(2,6-dioxopiperidin-3-yl)isoindoline-1,3-dione]	> 1000 nM	100 to 1000 nM	> 1000 nM	100 to 1000 nM					
O=C1CCC(N2C(=O)c3ccc(NC[C@H]4C[C@H](n5nc(C6CC6)c6cc(N7CCNCC7)ccc65)C4)cc3C2=O)C(=O)N1 (stereo partly drawn) [GS-740, 5-(((Trans-3-(3-cyclopropyl-5-(piperazin-1-yl)-1H-indazol-1-yl)cyclobutyl)methyl)amino)-2-(2,6-dioxopiperidin-3-yl)isoindoline-1,3-dione]					> 1000 nM	100 to 1000 nM	> 1000 nM		
